Data as given in PMC3466204 (PLoS ONE, 2012).
“And” between values parts separate entries of the source, which are not always exact repeats. Identical values can stand only once. Ends that are not written are not given here.

Assays:
[1] = test system: S. typhimurium UK-1; test: Kill curve analysis; assay type: cell-based, Salmonella enterica serovar Typhimurium; details: 33 mg/L purified peptide, 2×10^5 cfu ml^−1, 37°C for 1 hour
Protocol: (§1) Using purified peptide in each case, 10 mM sodium phosphate buffer washed C. sakazakii, E. coli and Salmonella strains were diluted to a final concentration of 2×10^5 cfu ml^−1 and were exposed to nisin A, S29G and S29A at a concentration of 33 mg/L. Following incubation at 37°C for 1 hour, bacterial growth was monitored through plate counts.

[2] = test system: C. sakazakii DPC 6440; test: Kill curve analysis; assay type: cell-based, Cronobacter sakazakii; details: 33 mg/L purified peptide, 2×10^5 cfu ml^−1, 37°C for 1 hour
Protocol: as §1

[3] = test system: B. cereus DPC 6088; test: Broth MIC, Gram positive; assay type: cell-based, Bacillus cereus; details: broth microtitre, BSA pre-treated plates, 10^5 cfu ml^−1, 2-fold dilutions from 10 µM, 16 h 37°C, purified peptide, mean of triplicate assays
Protocol: (§2) Minimum inhibitory concentration determinations for Gram positive organisms were carried out in triplicate in microtitre plates (Sarstedt). 96 well microtitre plates were pre-treated with bovine serum albumin (BSA) prior to addition of the peptides. Briefly, to each well of the microtitre plate 200 µL of phosphate buffered saline (PBS) containing 1% (w/v) bovine serum albumin (PBS/BSA) was added and incubated at 37°C for 30 min. The wells were washed with 200 µL PBS and allowed to dry. Target strains were grown overnight in the appropriate conditions and medium, subcultured into fresh broth and allowed to grow to an OD600 of ∼0.5, diluted to a final concentration of 10^5 cfu ml^−1 in a volume of 0.2 ml. Wild type nisin and nisin mutant peptides were adjusted to a 10 µM (S. mitis, B. cereus), 7.5 µM (L. monocytogenes), 5 µM (hVISA) 2.5 µM (MRSA, E. durans), or 500 nM (L. lactis strains) starting concentration and 2-fold serial dilutions of each peptide were added to the target strain.

[4] = test system: B. cereus DPC 6089; test: Broth MIC, Gram positive; assay type: cell-based, Bacillus cereus; details: broth microtitre, BSA pre-treated plates, 10^5 cfu ml^−1, 2-fold dilutions from 10 µM, 16 h 37°C, purified peptide, mean of triplicate assays
Protocol: as §2

[5] = test system: L. monocytogenes LO28; test: Broth MIC, Gram positive; assay type: cell-based; details: broth microtitre, BSA pre-treated plates, 10^5 cfu ml^−1, 2-fold dilutions from 7.5 µM, 16 h 37°C, purified peptide, mean of triplicate assays
Protocol: as §2

[6] = test system: ST 530 (Methicillin resistant S. aureus); test: Broth MIC, Gram positive; assay type: cell-based; details: broth microtitre, BSA pre-treated plates, 10^5 cfu ml^−1, 2-fold dilutions from 2.5 µM, 16 h 37°C, purified peptide, mean of triplicate assays
Protocol: as §2

[7] = test system: S. aureus RF122; test: Broth MIC, Gram positive; assay type: cell-based; details: broth microtitre, BSA pre-treated plates, 10^5 cfu ml^−1, 2-fold dilutions, 16 h 37°C, purified peptide, mean of triplicate assays
Protocol: as §2

[8] = test system: L. monocytogenes 10403S; test: Broth MIC, Gram positive; assay type: cell-based; details: broth microtitre, BSA pre-treated plates, 10^5 cfu ml^−1, 2-fold dilutions from 7.5 µM, 16 h 37°C, purified peptide, mean of triplicate assays
Protocol: as §2

[9] = test system: L. lactis MG1363; test: Broth MIC, Gram positive; assay type: cell-based; details: broth microtitre, BSA pre-treated plates, 10^5 cfu ml^−1, 2-fold dilutions from 500 nM, 16 h, purified peptide, mean of triplicate assays
Protocol: as §2

[10] = test system: L. lactis HP; test: Broth MIC, Gram positive; assay type: cell-based; details: broth microtitre, BSA pre-treated plates, 10^5 cfu ml^−1, 2-fold dilutions from 500 nM, 16 h, purified peptide, mean of triplicate assays
Protocol: as §2

[11] = test system: hVISA 32679 (heterogenous Vancomycin-intermediate S. aureus); test: Broth MIC, Gram positive; assay type: cell-based; details: broth microtitre, BSA pre-treated plates, 10^5 cfu ml^−1, 2-fold dilutions from 5 µM, 16 h 37°C, purified peptide, mean of triplicate assays
Protocol: as §2

[12] = test system: ST 528 (Methicillin resistant S. aureus); test: Broth MIC, Gram positive; assay type: cell-based; details: broth microtitre, BSA pre-treated plates, 10^5 cfu ml^−1, 2-fold dilutions from 2.5 µM, 16 h 37°C, purified peptide, mean of triplicate assays
Protocol: as §2

[13] = test system: E. coli 0157-H7; test: Agarose gel diffusion assay, purified peptide; assay type: cell-based; details: purified peptide 60 µM
Protocol: (§3) Agarose-based deferred antagonism assays were carried out as follows: GM17/LB (0.03%) underlay was prepared with 10 mM sodium phosphate buffer (SPB) at pH 7.4 to which was added agarose (1% w/v agarose), autoclaved and cooled to 50°C. Bacteria grown to mid-logarithmic phase were harvested by centrifugation and washed with 10 mM SPB at pH 7.4. Bacteria were then added to 15 mls cooled underlay medium to reach a concentration of 2×10^7 colony-forming units (CFU)/mL. The inoculated medium was rapidly transferred into sterile Petri plates, allowed to solidify and dried. Wells (4.6 mm in diameter) were then made in the seeded plates. 10 µl volumes of cell-free supernatant from overnight nisin derivative producing cultures or resuspended purified peptides were then added to the wells and the plates incubated at 30°C (L. lactis) or 37°C (Gram positive strains) or RT (Gram negative strains) for 3 hours. Polymyxin B (Sigma Aldrich) was used at a concentration of 20 µg/ml. The plates were then overlaid with 15 mls of autoclaved double strength GM17 (L. lactis) or LB (Gram negatives) agarose (1% w/v agarose) overlay medium precooled to 50°C. The plates were then incubated overnight at the relevant temperature.

[14] = test system: Salmonella enterica serovar Typhimurium UK1; test: Agarose gel diffusion assay, purified peptide; assay type: cell-based; details: purified peptide 60 µM
Protocol: as §3

[15] = test system: C. sakazakii DPC 6440; test: Agarose gel diffusion assay, purified peptide; assay type: cell-based, Cronobacter sakazakii; details: purified peptide 60 µM
Protocol: as §3

[16] = test system: E. coli; test: Kill curve analysis; assay type: cell-based; details: 33 mg/L purified peptide, 2×10^5 cfu ml^−1, 37°C for 1 hour
Protocol: as §1

[17] = test system: S. mitis UCC5000; test: Broth MIC, Gram positive; assay type: cell-based, Streptococcus mitis; details: broth microtitre, BSA pre-treated plates, 10^5 cfu ml^−1, 2-fold dilutions from 10 µM, 16 h 37°C, purified peptide, mean of triplicate assays
Protocol: as §2

[18] = test system: E. durans 5133; test: Broth MIC, Gram positive; assay type: cell-based, Enterococcus durans; details: broth microtitre, BSA pre-treated plates, 10^5 cfu ml^−1, 2-fold dilutions from 2.5 µM, 16 h 37°C, purified peptide, mean of triplicate assays
Protocol: as §2

[19] = test system: Lactococcus lactis HP; test: Agarose-based assay of cell-free supernatants of S29X producing strains
How it was run: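 Deferred antagonism in 1% agarose underlay (10 mM sodium phosphate, pH 7.4) seeded with mid-log indicator bacteria at 2×10^7 CFU/mL. Cell-free supernatant or purified peptide placed in 4.6 mm wells, held 3 h at 30 °C (L. lactis), 37 °C (Gram-positives) or RT (Gram-negatives). Plates were then overlaid with GM17 or LB agarose and incubated overnight.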

## S29G: bioengineered nisin A derivative with a serine to glycine change at position 29 (ITSISLCTPGCKTGALMGCNMKTATCHCGIHVSK; thioether (positions not given here); not fully specified (residues 2, 5, 33, bridges); UniProt P13068 24-57, looked up, variant S29G)
[1]
  Killing compared with nisin A (plate counts): greater activity than wildtype nisin A
[2]
  Killing compared with nisin A (plate counts): greater activity than wildtype nisin A
[3]
  MIC: 4.19 mg/L and 1.25 µM
[4]
  MIC: 4.19 mg/L and 1.25 µM
[5]
  MIC: 6.28 mg/L and 1.875 µM
[6]
  MIC: 0.26 mg/L and 0.078 µM
[7]
  MIC: 0.52 mg/L and 0.156 µM
[8]
  MIC: 6.28 mg/L and 1.875 µM
[9]
  MIC: 0.4 mg/L and 0.125 µM
[10]
  MIC: 0.1 mg/L and 0.031 µM
[11]
  MIC: 2 mg/L and 0.625 µM
[12]
  MIC: 0.26 mg/L and 0.078 µM
[13]; E. coli 0157-H7, mean of triplicate assays
  Zone of inhibition, agarose gel diffusion: 11.10±0.05 mm
[13]; E. coli 0157-H7, relative to nisin A
  Zone as % wt: 113 % wt
[14]; Salmonella Typhimurium UK1, mean of triplicate assays
  Zone of inhibition, agarose gel diffusion: 10.94±0.24 mm
[14]; Salmonella Typhimurium UK1, relative to nisin A
  Zone as % wt: 111 % wt
[15]; C. sakazakii DPC 6440, mean of triplicate assays
  Zone of inhibition, agarose gel diffusion: 10.79±0.16 mm
[15]; C. sakazakii DPC 6440, relative to nisin A
  Zone as % wt: 110 % wt
[16]
  Killing compared with nisin A (plate counts): greater activity than wildtype nisin A
[17]
  MIC: 8.38 mg/L and 2.5 µM
[18]
  MIC: 0.26 mg/L and 0.078 µM
[19]; agarose (1%) GM17 assay, 10 µl cell-free supernatant of overnight producing culture in 4.6 mm wells, L. lactis HP, 30°C
  Zone Diameter (mm): 15.4±0.5 mm
[19]; agarose assay of supernatants against L. lactis HP, wild type serine = 100
  % difference (zone relative to wild type): 101%
